These results are taken from ChEMBL document CHEMBL1150575, “Microbial transformation of hypoestenone” (2001).

As usually defined, the MIC is the lowest concentration that inhibits growth of the organism. A higher MIC goes with a less susceptible organism.

Holding throughout (type): functional
One test deals with Plasmodium falciparum. The test can be described thus: Antiparasitic activity against Plasmodium falciparum W2.
In a further test the test system is Cryptococcus neoformans. The test is described as follows: Antimicrobial activity against Cryptococcus neoformans by microtiter-plate assay.
In a further test the test system is Pseudomonas aeruginosa. The test can be described thus: Antimicrobial activity against Pseudomonas aeruginosa by microtiter-plate assay.

Each structure is given as a SMILES string. Converted amounts (≈) assume the structure as drawn.

On to `CC1=C2C[C@]3(C)C(=O)C[C@@H](C(C)C)[C@H]3C/C=C(/C)[C@@H]2CC1=O` [HYPOESTENONE], for which the MIC came out at 2.8 µg/mL (≈ 9.32 µM) with Plasmodium falciparum, 20 µg/mL (≈ 66.6 µM) in the test with Cryptococcus neoformans and 45 µg/mL (≈ 150 µM) against Pseudomonas aeruginosa.
As to `CC1=C2C[C@]3(C)C(=O)C[C@@H](C(C)C)[C@H]3C[C@H]3O[C@@]3(C)[C@@H]2CC1=O`, in the test on Cryptococcus neoformans, the MIC was 50 µg/mL (≈ 158 µM).
